Laboratory results from PubChem BioAssay (NCI).
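Values below derive from 48-hour exposures of cells grown in 96-well plates, with endpoints linearly interpolated between the two concentrations bracketing the appropriate inhibition level. Here, GI50 denotes the concentration required for 50% inhibition of growth. TGI marks complete inhibition of growth.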

Key:
Assay in all cases: NCI-60 cell line screen, 48 h
SF-268 CNS = system: SF-268 CNS
SF-539 CNS = system: SF-539 CNS
EKVX NSCLC = system: EKVX NSCLC
DU-145 prostate = system: DU-145 prostate
TK-10 renal = system: TK-10 renal
NCI-H522 lung = system: NCI-H522 lung
MDA-MB-435 = system: MDA-MB-435
HCT-15 colon = system: HCT-15 colon
UACC-62 melanoma = system: UACC-62 melanoma
CAKI-1 renal = system: CAKI-1 renal

Structure (SMILES) | GI50 (SF-268 CNS) [µM] | TGI (SF-268 CNS) [µM] | GI50 (SF-539 CNS) [µM] | TGI (SF-539 CNS) [µM] | GI50 (EKVX NSCLC) [µM] | TGI (EKVX NSCLC) [µM] | GI50 (DU-145 prostate) [µM] | TGI (DU-145 prostate) [µM] | GI50 (TK-10 renal) [µM] | TGI (TK-10 renal) [µM] | GI50 (NCI-H522 lung) [µM] | TGI (NCI-H522 lung) [µM] | GI50 (MDA-MB-435) [µM] | TGI (MDA-MB-435) [µM] | GI50 (HCT-15 colon) [µM] | TGI (HCT-15 colon) [µM] | GI50 (UACC-62 melanoma) [µM] | TGI (UACC-62 melanoma) [µM] | GI50 (CAKI-1 renal) [µM] | TGI (CAKI-1 renal) [µM]
Cc1cc2c(C(C)C)c(O)c(O)c(/C=N/O)c2c(O)c1-c1c(C)cc2c(C(C)C)c(O)c(O)c(/C=N/O)c2c1O | 1.54 | 11.4 | 1.85 | 5.37 | 1.94 | 11.4 | 2.77 | 13.7 | 3.13 | 13.7 | 1.74 | 5.47 | 2.78 | 12.1 | 2.35 | 13.4 | 2.15 | 5.23 |  | 
O=C(NNC1=NS(=O)(=O)c2ccccc2N1c1ccccc1)c1cnccn1 | > 100 | > 100 | > 100 | > 100 | > 100 | > 100 | > 100 | > 100 | > 100 | > 100 | > 100 | > 100 | > 100 | > 100 | 52.2 | > 100 | > 100 | > 100 | > 100 | > 100
COc1ccc(-c2cc(-c3ccc(Cl)cc3)nc(SCCCC(=O)NO)n2)cc1OC | 1.28 | 3.81 | 1.28 | 3 | 1.04 | 8.89 | 0.811 | 4.73 | 0.537 | 8.28 | 1.3 | 4.05 | 1.42 | 3.12 | 0.337 | 1.56 | 1.01 | 2.86 | 0.308 | 1.54
CCN(CC)CCOc1ccc(/C(=C(\C)Cc2ccc(OC)cc2)c2ccc(O)cc2)cc1 | 1.86 | 4.33 | 1.75 | 3.24 | 2.08 | 6.19 | 2.14 | 5 | 1.82 | 3.68 | 1.89 | 3.82 | 1.68 | 3.15 | 1.49 | 3 | 1.81 | 3.32 | 1.65 | 3.21
CCOC(=O)C(Cc1ccccc1)n1c(O)c(/C=N/c2ncc(Cc3ccc(Cl)cc3Cl)s2)sc1=S (centres undefined) | 2.42 | 64.8 | 2.58 | 6.95 | 2.07 | > 100 | 3.9 | > 100 |  |  | 1.31 | 5.7 | 3.38 | > 100 | 0.548 | > 100 | 1.63 | 6.37 | 1.71 | > 100
CC1(C)CCC2(C(=O)O)C(O)CC3(C)C(=CCC4C5(C)CCC(OC6OCC(O)C(O)C6OC6OCC(O)C(O)C6OC6OCC(O)C(OC7OC(CO)C(O)C(O)C7O)C6O)C(C)(C)C5CCC43C)C2C1 (centres undefined) |  | 64 |  | > 100 |  | > 100 |  | > 100 |  | > 100 |  | 49.4 |  | 93 |  | > 100 |  | > 100 |  | > 100
Cn1cc(Nc2nccc(-c3ccc4c(c3)CN(C3COC3)CC[C@H]4NC(=O)c3cn(C(C)(C)C)nn3)n2)cn1 | > 100 | > 100 | 99.1 | > 100 | > 100 | > 100 | > 100 | > 100 | 59.5 | > 100 | 96.1 | > 100 | 42.3 | > 100 | > 100 | > 100 | 23.1 | > 100 | 37.7 | > 100
C/C=C(/C)C(=O)OC1C=C(CO)C(=O)C(OC(=O)C2(C)OC2C)C1C(C)C (centres undefined) | 2.46 | 6.32 | 1.86 | 3.38 | 2.75 | 7.63 | 1.52 | 2.88 | 1.88 | 3.36 | 1.07 | 2.54 | 1.49 | 2.88 | 1.4 | 3.09 | 1.33 | 2.68 | 1.81 | 3.2
C=C1CC[C@@](C)(c2cc(Br)c(C)cc2OC(C)=O)[C@H]1C | 13.2 | 28.3 | 13.5 | 26.4 | 14.7 | 28.2 | 15.9 | 31.9 | 12 | 25 | 15 | 31.4 | 13.3 | 27.5 | 15.1 | 31.3 | 7.06 | 20.1 | 14.7 | 28.8
Oc1ccc(/C=N/NC(=S)Nc2ccccc2)nc1 | 0.969 | > 100 | 0.851 | 6.19 |  |  | 1.1 | > 100 | 4.18 | > 100 | 1.94 | 39.8 | 2.19 | > 100 | 0.407 | > 100 | 1.55 | 4.95 | 0.667 | > 100
COC(=O)C1C(=O)C(C(=O)OC)C2CCC1N2C (centres undefined) |  | > 100 |  | > 100 |  | > 100 |  | > 100 |  | > 100 |  | > 100 |  | > 79.3 |  | > 100 |  | > 100 |  | > 100
CN1CCC(=C(c2ccc(Cl)cc2)c2ccccn2)CC1 | > 100 | > 100 | 85.1 | > 100 | > 100 | > 100 | > 100 | > 100 | > 100 | > 100 | 95.5 | > 100 | 40.7 | > 100 | > 100 | > 100 | 33.3 | > 100 | > 100 | > 100
